Experimental data as given in patent US20100256160A1, “METHOD OF ADMINISTERING AN ANTITUMOR COMPOUND” (NERVIANO MEDICAL SCIENCES S.R.L., priority 2006, published 2010).

How the values were obtained:
[1] = system: patients with hematopoietic malignancies such as relapsed/refractory acute leukemia; assay: Phase I study, 3-hour intravenous infusion for three consecutive days every two weeks; type: in vivo, human; details: 100, 150, 210, and 280 mg/m^2/daily; ten patients
Experimental: A phase I pharmacological study to investigate the iv administration of Compound 1 given in a 3-hour intravenous infusion for three consecutive days every two weeks in patients with hematopoietic malignancies such as relapsed/refractory acute leukemia. Ten patients have been enrolled in 4 dose levels (100, 150, 210, and 280 mg/m^2/daily). […] Dose escalation is still proceeding.

[2] = system: patients with refractory or resistant solid tumours; assay: Phase I dose escalation trial, 24 hours iv infusion once every two weeks: toxicity and response; type: in vivo
Experimental: (§1) A phase I pharmacological trial was carried out to investigate the iv administration of Compound 1 given in 24 hours infusion once every two weeks in patients with refractory or resistant solid tumours, including lung, colorectal, gastro-oesophageal, cervix, Ewing, renal, head and neck, mesothelioma and cancer of unknown primary.
This was a dose escalation study. Cohorts of 3-6 patients were sequentially allotted to progressively higher dose levels (DL) of Compound 1 based on the number of dose limiting toxicities (DLTs) observed. As per protocol, definition of DLTs were grade (G) 4 neutropenia lasting >7 days, febrile neutropenia, neutropenic infection, any G3 or 4 non-hematological drug related toxicities during the first cycle of treatment.
(§2) Forty patients were enrolled. Seven DLs were explored (45, 90, 180, 360, 500, 650 and 580 mg/m^2). […] Except one G3 diarrhea, pyrexia and fatigue in one patient each, all other drug related non-hematological adverse events were G1 or 2 (fatigue, anorexia, nausea, vomiting, and ejection fraction decreased). One DLT (neutropenic infection) in the 360 mg/m^2, 2 DLTs (neutropenic infection and febrile neutropenia) at DL 650 mg/m^2 and 2 DLTs at 580 mg/m^2 (G 3 liver enzyme increase and febrile neutropenia) were reported. The MTD has been exceeded at 650 and 580 mg/m^2.

Aurora kinases (AKs) B = Aurora kinases (AKs) B (Homo sapiens, UniProt Q96GD4); assay: Inhibitory potency towards Aurora kinase B; type: biochemical
[3] = Pharmacokinetics in phase I trial, 24 hours iv infusion once every two weeks; type: in vivo, human; details: patients
Experimental: as §1
Neutropenia was the dose-limiting toxicity for Compound 1 and easily managed. […] Biomarker modulation occurred at ≧500 mg/m^2. […] The recommended dose for Phase II was 500 mg/m^2. Furthermore the protocol was amended to increase the dose up to 750 mg/m^2 with prophylactic treatment with G-CSF.

Aurora kinases (AKs) C = target: T1, Aurora kinases (AKs) C (Homo sapiens, UniProt Q9UQB9); assay: Inhibitory potency towards Aurora kinase C; type: biochemical
T1 sequence (Q9UQB9 1-309): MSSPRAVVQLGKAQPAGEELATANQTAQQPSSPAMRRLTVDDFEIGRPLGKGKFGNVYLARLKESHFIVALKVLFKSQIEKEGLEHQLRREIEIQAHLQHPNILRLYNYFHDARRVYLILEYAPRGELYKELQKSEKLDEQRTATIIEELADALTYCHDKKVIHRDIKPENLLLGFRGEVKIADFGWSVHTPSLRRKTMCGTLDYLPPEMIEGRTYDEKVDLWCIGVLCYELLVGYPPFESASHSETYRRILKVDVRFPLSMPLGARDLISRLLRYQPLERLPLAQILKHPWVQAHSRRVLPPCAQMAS

[4] = system: patients with advanced/metastatic solid tumors; assay: Two-center phase I dose escalation trial, 6-hours IV infusion weekly for 3 consecutive weeks in a 28-day cycle; type: in vivo
Experimental: The infusion duration was selected to reduce the potential for Cmax related toxicities. Forty patients were treated with doses ranging from 45 to 400 mg/m^2. […] In order to define the recommended dose for phase II, 330 mg/m^2 dose level was investigated.

[5] = system: histone H3 phosphorylation; assay: Histone H3 phosphorylation in skin biopsies of patients, phase I trial 24 hours infusion; type: in vivo, human; details: 24 h iv infusion
Experimental: as §1, §2

Aurora kinases (AKs) A = target: T2, Aurora kinases (AKs) A (Homo sapiens, UniProt O14965); assay: Inhibitory potency towards Aurora kinase A; type: biochemical
T2 sequence (O14965 1-403): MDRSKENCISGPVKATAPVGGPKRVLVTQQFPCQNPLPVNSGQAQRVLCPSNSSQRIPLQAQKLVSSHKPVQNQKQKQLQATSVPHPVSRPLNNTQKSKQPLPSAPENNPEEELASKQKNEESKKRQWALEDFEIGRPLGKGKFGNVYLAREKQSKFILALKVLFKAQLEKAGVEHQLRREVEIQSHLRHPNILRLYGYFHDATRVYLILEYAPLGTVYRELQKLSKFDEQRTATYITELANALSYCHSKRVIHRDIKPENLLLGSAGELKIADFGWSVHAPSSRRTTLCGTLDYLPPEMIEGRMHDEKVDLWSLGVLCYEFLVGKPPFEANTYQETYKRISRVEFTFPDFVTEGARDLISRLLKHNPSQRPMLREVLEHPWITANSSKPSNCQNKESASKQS

Sequence of Aurora kinases (AKs) B (Q96GD4 whole entry, the tested form may be a part): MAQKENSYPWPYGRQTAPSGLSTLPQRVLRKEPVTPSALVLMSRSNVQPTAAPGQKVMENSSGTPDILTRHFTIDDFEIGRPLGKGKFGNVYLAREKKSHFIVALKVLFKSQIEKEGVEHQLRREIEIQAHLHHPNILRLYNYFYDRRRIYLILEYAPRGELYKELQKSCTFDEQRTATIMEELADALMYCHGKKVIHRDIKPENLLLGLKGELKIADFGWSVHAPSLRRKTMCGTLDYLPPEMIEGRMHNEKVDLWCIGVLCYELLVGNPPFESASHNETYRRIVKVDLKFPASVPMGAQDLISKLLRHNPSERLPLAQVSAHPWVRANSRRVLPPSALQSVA

In the case of CO[C@@H](C(=O)N1Cc2n[nH]c(NC(=O)c3ccc(N4CCN(C)CC4)cc3)c2C1)c1ccccc1 [Compound 1, N-{5-[(2R)-2-methoxy-2-phenylethanoyl]-1,4,5,6-tetrahydropyrrolo[3,4-c]pyrazol-3-yl}-4-(4-methylpiperazin-1-yl)benzamide], the tolerability of regimen [1] was “well tolerated”, the “MTD (exceeded at 650 and 580 mg/m^2)” value ([2]; 24 h iv infusion every two weeks) was under 580 mg/m^2 and the “number of pts with stable disease as best response” value ([2]; forty patients enrolled) was “Nine”. The “recommended dose for Phase II” value ([2]; human, in vivo, iv) was 500 mg/m^2, the dose-limiting toxicity ([2]; in vivo, iv) was “Neutropenia” and the “non-hematological drug related adverse events, severity” value ([2]; in vivo, iv) was “mild or moderate”. The “number of stable-disease pts with response duration >6 months” value ([2]; of the nine pts with stable disease) was 3, the “inhibitory potency towards Aurora kinase B” value (Aurora kinases (AKs) B) was “significant inhibitory potency” and the clearance ([3]; human, in vivo) was 5 to 7.5 mL/min/kg. The half-life ([3]; human, in vivo, read-out: terminal half-life) was 18 to 30 h, the pharmacokinetic behavior [3] was “dose-proportional and time-independent behavior” and the “pharmacokinetic linearity and variability” value [3] was “linear with low inter-individual variability”. For the same compound, the volume of distribution [3] was 2-4 times total body water, the “inhibitory potency towards Aurora kinase C” value (Aurora kinases (AKs) C) was “significant inhibitory potency” and the “uncomplicated grade 3 neutropenia” value ([4]; 250 mg/m^2) was “frequently reported”. The drug-related deaths ([4]; 45 to 400 mg/m^2) was “No drug-related deaths”, the hematological toxicity reported ([4]; 45 to 400 mg/m^2, 6-hours IV infusion days 1, 8, 15 every 28 days) was “Uncomplicated neutropenia of short duration” and the “drug-related non hematological toxicities, severity” value ([4]; G1/G2 diarrhea, nausea, vomiting, fatigue, anorexia and blood pressure increase) was “mild or moderate”. The “number of patients with stable disease as best response” value ([4]; forty patients treated) was “Seven”, the “number of stable-disease patients with response lasting more than seven months” value ([4]; of the seven patients with stable disease) was “four” and the “dose at which inhibition of histone H3 phosphorylation (biomarker modulation) was evident” value [5] was at least 500 mg/m^2. The “inhibitory potency towards Aurora kinase A” value (Aurora kinases (AKs) A) was “significant inhibitory potency”.
